{"source": "ChEMBL document CHEMBL1201862", "about": "“PubChem BioAssay data set” (2004)", "assay_in_all_cases": "growth of human tumour cells (NCI), 48 h", "key": {"[1]": {"test_system": "LXFL 529"}, "[2]": {"test_system": "NCI-H522"}, "[3]": {"test_system": "SNB-78"}, "[4]": {"test_system": "XF498"}, "[5]": {"test_system": "MDA-N"}, "[6]": {"test_system": "T47D"}, "[7]": {"test_system": "Hs-578T"}, "[8]": {"test_system": "HOP-18"}, "[9]": {"test_system": "RXF 631"}}, "note": "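Values below derive from 48-hour exposures of cells grown in 96-well plates, with endpoints linearly interpolated between the two concentrations bracketing the appropriate inhibition level. GI50 = concentration required for 50% inhibition of growth.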 Calls of active or inactive are those of the source. Rule as the data show it: active = GI50 up to about 1.1 µM and inactive = higher."}
{"smiles": "O=[N+]([O-])c1ccc(C2=Nc3ccccc3SC(c3ccccc3)C2)cc1", "note": "(stereo unspecified)", "values": [{"measurement": "GI50", "setting": "[1]", "result": "17.8 µM (inactive)"}, {"measurement": "GI50", "setting": "[2]", "result": "13.4 µM (inactive)"}, {"measurement": "GI50", "setting": "[3]", "result": "23.6 µM (inactive)"}, {"measurement": "GI50", "setting": "[4]", "result": "17.5 µM (inactive)"}]}
{"smiles": "CN1C2CCC1CC(C)(O)C2", "note": "(stereo unspecified)", "values": [{"measurement": "GI50", "setting": "[5]", "result": "> 100 µM (inactive)"}, {"measurement": "GI50", "setting": "[6]", "result": "> 100 µM (inactive)"}]}
{"smiles": "O=C(c1ccco1)C1CC(c2c(O)ccc3ccccc23)=NN1", "note": "(stereo unspecified)", "values": [{"measurement": "GI50", "setting": "[7]", "result": "18.5 µM (inactive)"}, {"measurement": "GI50", "setting": "[5]", "result": "12.6 µM (inactive)"}, {"measurement": "GI50", "setting": "[2]", "result": "4.2 µM (inactive)"}, {"measurement": "GI50", "setting": "[6]", "result": "3.33 µM (inactive)"}]}
{"smiles": "COc1ccc(/C=C2\\CC3C4CC=C5C[C@@H](O)CC[C@]5(C)C4CC[C@]3(C)\\C2=N\\O)cc1OC", "note": "(stereo partly specified)", "values": [{"measurement": "GI50", "setting": "[7]", "result": "8.77 µM (inactive)"}, {"measurement": "GI50", "setting": "[5]", "result": "14.1 µM (inactive)"}, {"measurement": "GI50", "setting": "[2]", "result": "13.9 µM (inactive)"}, {"measurement": "GI50", "setting": "[6]", "result": "3.35 µM (inactive)"}]}
{"smiles": "COC(=O)c1ccc(/C=C2\\N=C(C)OC2=O)cc1", "values": [{"measurement": "GI50", "setting": "[8]", "result": "> 100 µM (inactive)"}, {"measurement": "GI50", "setting": "[1]", "result": "> 100 µM (inactive)"}, {"measurement": "GI50", "setting": "[2]", "result": "59 µM (inactive)"}, {"measurement": "GI50", "setting": "[9]", "result": "> 100 µM (inactive)"}, {"measurement": "GI50", "setting": "[4]", "result": "> 100 µM (inactive)"}]}
{"smiles": "COC(=O)C1(Cc2ccccc2)Cc2cc3c(cc2C1)CCC3", "values": [{"measurement": "GI50", "setting": "[7]", "result": "34.4 µM (inactive)"}, {"measurement": "GI50", "setting": "[5]", "result": "16 µM (inactive)"}, {"measurement": "GI50", "setting": "[2]", "result": "22.2 µM (inactive)"}, {"measurement": "GI50", "setting": "[6]", "result": "18.2 µM (inactive)"}]}
{"smiles": "Nc1n[nH]c(CCCCCCCc2nnc(N)[nH]2)n1", "values": [{"measurement": "GI50", "setting": "[1]", "result": "> 100 µM (inactive)"}, {"measurement": "GI50", "setting": "[2]", "result": "> 100 µM (inactive)"}, {"measurement": "GI50", "setting": "[3]", "result": "> 100 µM (inactive)"}]}
{"smiles": "C/C(=N\\O)C1CC(CC(=O)O)C1(C)C", "note": "(stereo unspecified)", "values": [{"measurement": "GI50", "setting": "[7]", "result": "> 100 µM (inactive)"}, {"measurement": "GI50", "setting": "[5]", "result": "> 100 µM (inactive)"}, {"measurement": "GI50", "setting": "[2]", "result": "> 100 µM (inactive)"}, {"measurement": "GI50", "setting": "[6]", "result": "> 100 µM (inactive)"}]}
{"smiles": "CCN1C(=O)C(=Cc2ccc(-c3ccccc3)cc2)C(=O)N(CC)C1=S", "values": [{"measurement": "GI50", "setting": "[7]", "result": "> 100 µM (inactive)"}, {"measurement": "GI50", "setting": "[6]", "result": "> 100 µM (inactive)"}]}
{"smiles": "N=c1c2c(=S)n(-c3ccccc3)c(=S)n(-c3ccccc3)c2nc(SCCCN2CCN(c3cccc(Cl)c3)CC2)n1-c1ccccc1", "values": [{"measurement": "GI50", "setting": "[7]", "result": "> 100 µM (inactive)"}, {"measurement": "GI50", "setting": "[2]", "result": "> 100 µM (inactive)"}]}
{"smiles": "CCOCCOc1ccc(OCCOCC)cc1", "values": [{"measurement": "GI50", "setting": "[8]", "result": "10.7 µM (inactive)"}, {"measurement": "GI50", "setting": "[3]", "result": "> 42.7 µM (inactive)"}, {"measurement": "GI50", "setting": "[4]", "result": "16.4 µM (inactive)"}]}
{"smiles": "COc1ccc(/C(Cl)=C(\\C=O)c2ccc(OC)cc2)cc1", "values": [{"measurement": "GI50", "setting": "[8]", "result": "63.8 µM (inactive)"}, {"measurement": "GI50", "setting": "[1]", "result": "> 100 µM (inactive)"}, {"measurement": "GI50", "setting": "[2]", "result": "18.3 µM (inactive)"}, {"measurement": "GI50", "setting": "[9]", "result": "58.3 µM (inactive)"}, {"measurement": "GI50", "setting": "[3]", "result": "> 100 µM (inactive)"}]}
{"smiles": "COc1cccc(NC(=O)CC(=O)n2nc(-c3ccccc3)c(/N=N/c3ccc(Cl)cc3)c2-c2ccccc2)c1", "values": [{"measurement": "GI50", "setting": "[7]", "result": "26.2 µM (inactive)"}, {"measurement": "GI50", "setting": "[5]", "result": "38.8 µM (inactive)"}, {"measurement": "GI50", "setting": "[2]", "result": "19.4 µM (inactive)"}, {"measurement": "GI50", "setting": "[6]", "result": "13.9 µM (inactive)"}]}
{"smiles": "CSCC(CO)NC(=O)/C=C/c1c(C)[nH]c(=O)[nH]c1=O", "note": "(stereo unspecified)", "values": [{"measurement": "GI50", "setting": "[8]", "result": "> 875 µM (inactive)"}, {"measurement": "GI50", "setting": "[2]", "result": "45.8 µM (inactive)"}, {"measurement": "GI50", "setting": "[3]", "result": "> 853 µM (inactive)"}, {"measurement": "GI50", "setting": "[4]", "result": "311 µM (inactive)"}]}
{"smiles": "CCOC(=O)/C=C1/Oc2ccccc2C1(C)O", "note": "(stereo unspecified)", "values": [{"measurement": "GI50", "setting": "[8]", "result": "> 100 µM (inactive)"}, {"measurement": "GI50", "setting": "[1]", "result": "> 100 µM (inactive)"}, {"measurement": "GI50", "setting": "[2]", "result": "> 100 µM (inactive)"}, {"measurement": "GI50", "setting": "[3]", "result": "> 100 µM (inactive)"}]}
{"smiles": "CN(C)C(=O)C1CCC(=C2C(=O)OC(C)(C)OC2=O)N1C", "note": "(stereo unspecified)", "values": [{"measurement": "GI50", "setting": "[8]", "result": "> 100 µM (inactive)"}, {"measurement": "GI50", "setting": "[1]", "result": "> 100 µM (inactive)"}, {"measurement": "GI50", "setting": "[2]", "result": "> 100 µM (inactive)"}, {"measurement": "GI50", "setting": "[3]", "result": "> 100 µM (inactive)"}, {"measurement": "GI50", "setting": "[4]", "result": "> 100 µM (inactive)"}]}
{"smiles": "COC(=O)[C@@H](NC(=O)[C@H](N)Cc1ccc(N(CCCl)CCCl)cc1)C(C)C", "values": [{"measurement": "GI50", "setting": "[7]", "result": "26.2 µM (inactive)"}, {"measurement": "GI50", "setting": "[5]", "result": "23.3 µM (inactive)"}, {"measurement": "GI50", "setting": "[2]", "result": "5.92 µM (inactive)"}, {"measurement": "GI50", "setting": "[6]", "result": "2.86 µM (inactive)"}]}
{"smiles": "CN(N)c1nc(N)c(C#N)c(C#N)c1C#N", "values": [{"measurement": "GI50", "setting": "[7]", "result": "> 10 µM (inactive)"}, {"measurement": "GI50", "setting": "[5]", "result": "> 10 µM (inactive)"}, {"measurement": "GI50", "setting": "[2]", "result": "> 10 µM (inactive)"}, {"measurement": "GI50", "setting": "[6]", "result": "> 10 µM (inactive)"}]}
{"smiles": "CC1OC(O)CC(OC(=O)c2ccccc2)C1OC(=O)c1ccccc1", "note": "(stereo unspecified)", "values": [{"measurement": "GI50", "setting": "[8]", "result": "26.3 µM (inactive)"}, {"measurement": "GI50", "setting": "[1]", "result": "16.2 µM (inactive)"}, {"measurement": "GI50", "setting": "[2]", "result": "> 100 µM (inactive)"}, {"measurement": "GI50", "setting": "[4]", "result": "19.9 µM (inactive)"}]}
{"smiles": "CC1(C)CC[C@]2(C)CC[C@]3(C)C(=CC[C@@H]4[C@@]5(C)CCC(=O)C(C)(C)[C@@H]5[C@H](O)C[C@]43C)[C@@H]2C1", "values": [{"measurement": "GI50", "setting": "[7]", "result": "19.5 µM (inactive)"}, {"measurement": "GI50", "setting": "[5]", "result": "15.6 µM (inactive)"}, {"measurement": "GI50", "setting": "[2]", "result": "17 µM (inactive)"}, {"measurement": "GI50", "setting": "[6]", "result": "17.3 µM (inactive)"}]}
{"smiles": "C[Si](C)(C)OC1(C#N)c2ccccc2CCCC12CCCC2", "note": "(stereo unspecified)", "values": [{"measurement": "GI50", "setting": "[7]", "result": "62.1 µM (inactive)"}, {"measurement": "GI50", "setting": "[5]", "result": "46 µM (inactive)"}, {"measurement": "GI50", "setting": "[2]", "result": "21.9 µM (inactive)"}, {"measurement": "GI50", "setting": "[6]", "result": "24.7 µM (inactive)"}]}
{"smiles": "CC(C)=CC(=O)OC1C2C(C)=CC(O)C(O)C2(C)C2C3(O)OCC24C(CC(=O)OC14)C(C)C3O", "note": "(stereo unspecified)", "values": [{"measurement": "GI50", "setting": "[8]", "result": "1.11 µM (active)"}, {"measurement": "GI50", "setting": "[2]", "result": "0.0298 µM (active)"}, {"measurement": "GI50", "setting": "[3]", "result": "0.272 µM (active)"}, {"measurement": "GI50", "setting": "[4]", "result": "0.122 µM (active)"}]}
{"smiles": "Nc1cc(S(=O)(=O)O)cc2cc(S(=O)(=O)O)c(/N=N/c3ccc(-c4ccc(/N=N/c5c(S(=O)(=O)O)cc6cc(S(=O)(=O)O)cc(N)c6c5O)cc4)cc3)c(O)c12", "values": [{"measurement": "GI50", "setting": "[8]", "result": "> 100 µM (inactive)"}, {"measurement": "GI50", "setting": "[2]", "result": "> 100 µM (inactive)"}, {"measurement": "GI50", "setting": "[3]", "result": "> 100 µM (inactive)"}, {"measurement": "GI50", "setting": "[4]", "result": "> 100 µM (inactive)"}]}
{"smiles": "CCc1ccc(Nc2cc(=O)[nH]c(=S)n2C)cc1", "values": [{"measurement": "GI50", "setting": "[8]", "result": "> 100 µM (inactive)"}, {"measurement": "GI50", "setting": "[1]", "result": "> 100 µM (inactive)"}, {"measurement": "GI50", "setting": "[2]", "result": "> 100 µM (inactive)"}, {"measurement": "GI50", "setting": "[3]", "result": "> 100 µM (inactive)"}, {"measurement": "GI50", "setting": "[4]", "result": "> 100 µM (inactive)"}]}
{"smiles": "N[C@@H](CSCSC[C@H](N)C(=O)O)C(=O)O", "values": [{"measurement": "GI50", "setting": "[8]", "result": "> 225 µM (inactive)"}, {"measurement": "GI50", "setting": "[2]", "result": "> 225 µM (inactive)"}, {"measurement": "GI50", "setting": "[3]", "result": "126 µM (inactive)"}, {"measurement": "GI50", "setting": "[4]", "result": "> 225 µM (inactive)"}]}
